# According to US4990663A, “Process for preparing halogenated aromatic amines” (E. I. Du POnt de Nemours and Company, priority 1989, dated 1991):
# What was measured:
# [1] = dechlorination in platinum-catalyzed hydrogenation, semi-continuous reactor; settings: for Dechlor: ppm based on weight of product amine
# Procedure: The autoclave was sealed, the air was displaced with nitrogen and the autoclave was pressure tested. The nitrogen was replaced with hydrogen and the contents of the autoclave were heated to 80° C. The agitation was started and the contents of the autoclave were heated to 100° C. The pressure control regulator on the hydrogen feed was set at 540 psig and this pressure maintained in the autoclave throughout the reduction. The addition of 510 g of 3,4-dichloro-1-nitrobenzene crude (containing 11% 2,3- and 1% 2,5- isomers) was started. During the simultaneous feeding of the hydrogen and the nitroaromatic, the temperature was allowed to rise to 135° C. where it was controlled by the automated cooling water system. The addition of the nitroaromatic was completed in about 120 minutes. […] Heating at reaction conditions was continued for an additional 15 minutes. The autoclave was cooled, the hydrogen was displaced with nitrogen and the organic phase was separated.
# [2] = storage stabilization of molten 3,4-dichloroaniline at 110° C.; settings: 0.43 wt. % additive
# Procedure: Round bottom drying ampuls of 20 ml capacity were dried by heating and were then cooled under nitrogen. Ten ml of test samples consisting of molten 3,4-dichloroaniline containing candidate stabilizers were pipetted into the ampuls which were sealed under nitrogen and stored in a 110° C. oven. Periodically an ampul of each sample was removed from the oven and evaluated.
# [3] = dehalogenation inhibitor evaluation in laboratory batch hydrogenation
# Procedure: The autoclave was sealed, the air was displaced with nitrogen and the autoclave was pressure tested. The nitrogen was replaced with hydrogen and the contents of the autoclave were heated to 75° C. The agitation was started and the pressure control regulator on the hydrogen feed was set to a maximum of 500 psig. […] The reduction was terminated. The autoclave was cooled, the hydrogen was displaced with nitrogen and the organic phase was separated.
# Hydrogenation temperature was controlled at 110° C. instead of 96° C.
# [4] = per literature data; cited from earlier work
# [5] = 2.0 mole % inhibitor based on nitroaromatic
# [6] = 2.1 mole % inhibitor based on nitroaromatic
structure (smiles),measurement,setting,value
CC(O)CN (stereo not shown) [1-amino-2-propanol],Dechlor,[1]; 1.5 mole % inhibitor based on nitroaromatic,470 ppm
COCCN [2-methoxyethylamine],Color,[2]; 7 days,Lt yellow
same,High Boilers,[2]; 7 days,0.05 Weight %
same,Color,[2]; 60 days,Yellow
same,High Boilers,[2]; 60 days,0.07 Weight %
same,dechlorinated derivatives in product amine,"[3]; Example 10, 1.0 weight % inhibitor, otherwise as Example 8",0.05%
same,dehalogenation inhibition,"[3]; batch, similar conditions (96° C.)",good dehalogenation inhibitor being approximately equivalent to morpholine
same,pKb,[4],4.6
same,Dechlor,[1]; [5],282 ppm
NCCCO [3-amino-1-propanol],pKb,[4],4.1
same,Dechlor,[1]; [5],423 ppm
COCCCN [3-methoxy-1-propylamine],Dechlor,[1]; 2.5 mole % inhibitor based on nitroaromatic,438 ppm
OCCNCCO [diethanolamine],pKb,[4],5.0
same,Dechlor,[1]; [6],344 ppm
NCCO [ethanolamine],dechlorination (total of aniline and monochloroanilines calculated as p-chloroaniline),"[3]; Example 8, 0.5 weight % inhibitor, 96° C., 7.9 mg platinum, terminated at 188 minutes",0.03%
same,dechlorinated derivatives in product amine,"[3]; Example 9, 0.375 weight % inhibitor, 110° C., 15.8 mg platinum",0.003%
same,dehalogenation,"[3]; batch, 96° C., concentrations near optimum for semicontinuous unit",very low
same,dechlorination (total of aniline and monochloroanilines in the product calculated as p-chloroaniline),"[1]; Example 1, 0.4 weight % and 1.2 mole % inhibitor based on nitroaromatic, 135° C., 540 psig",less than 235 ppm
"C1COCCN1 [morpholine, reference compound]",Dechlor,[1]; [6],548 ppm
